System: TGF-β1-induced PAI-1 protein production in A431 cells
Experiment: Western blot for PAI-1 in A431 cells
Assay type: cell-based
Settings: for inhibition of TGF-β1-induced PAI-1 protein production, peptide treated with DMSO / inhibition of TGF-β1-induced PAI-1 protein production, peptide in Tris left untreated: 100 pM TGF-β1, 18 hours; for inhibition of TGF-β1-induced PAI-1 protein production, peptide treated with DMSO: 0.5% DMSO (FIG. 9); for inhibition of TGF-β1-induced PAI-1 protein production, peptide in Tris left untreated: no DMSO (FIG. 9)
Procedure: FIG. 7 illustrates that the small molecular weight CD109-based peptide P16 (but not P11 or P16-1) inhibits TGF-β1-induced PAI-protein production. A431 cells were treated without (lane 1) or with 100 pM of TGF-β1 (lanes 2-6) in the absence (lane 2) or presence of 10 nM of P11 (11 aa peptide, lane 3), P16 (16 aa peptide, lane 4), P16-1 (scrambled peptide of 16 aa, lane 5) or Tris buffer (buffer, lane 6) for 24 hrs. Cell lysates were analyzed by Western blot for PAI-1 ([…]) protein levels and normalized to GAPDH protein levels (loading control). In the conditions tested, P16 (but not P11) inhibited TGF-β1-induced PAI-1 expression.
A431 cells were treated for 18 hours without (−) or with (+) 100 pM TGF-β1 in the presence or absence of Peptide X or P16. The peptides were previously dissolved in Tris buffer and left untreated or treated with DMSO prior to addition to the cells. Cell lysates were analyzed by Western blot for PAI-1 (plasminogen activator inhibitor-1) protein expression (top panel) and GAPDH served as a loading control (bottom panel). PAI-1 was not detected in untreated cells (lane 1).
A431 cells were grown in 6-well plates to 70-80% confluency and serum-starved overnight. Cells were washed with PBS and treated with or without TGF-β1 in presence or absence of various CD109-based peptides as indicated in the figure legends. Cells were solubilized with 500 μl of lysis buffer (50 mM Tris, pH 7.5, 150 mM NaCl, 50 mM NaF, 50 mM β-glycerophosphate, 1 mM sodium orthovanadate, 1 mM dithiothreitol, 5 mM EDTA, pH 8.0, 1% Nonidet P-40, 10% glycerol, 10 μM phenylmethylsulfonyl fluoride, 200 μg/ml bovine serum albumin, 1 μg/ml leupeptin, […] soybean trypsin inhibitor, 10 μg/ml benzamide, and 2 μg/ml pepstatin) for 30 min at 4° C. with mild agitation. Cell lysates were collected and centrifuged for 10 min at 10,000×g. The supernatants were collected and protein concentrations were determined using the Bio-Rad protein assay kit. Lysates containing equivalent protein concentrations were mixed with 0.2 volume of 5× electrophoresis sample buffer containing 5% β-mercaptoethanol and boiled for 5 min. Samples were resolved on 7.5% SDS-polyacrylamide gels and transferred to nitrocellulose membranes. Membranes were blocked for 3 h in blocking buffer (30 mM Tris, pH 7.5, 150 mM NaCl, and 0.05% (w/v) Tween 20™ (Tris-buffered saline/Tween) containing 5% (w/v) skim milk powder). The blot was incubated overnight at 4° C. with a 1:1000 dilution of anti-PAI-1 antibody (BD Biosciences). Blots were washed with Tris-buffered saline/Tween and incubated for 45 min at room temperature with a 1:5000 dilution of secondary antibody conjugated to horseradish peroxidase (Pierce). Chemiluminescence detection of the immune complexes was performed using the ECL system (Amersham Biosciences) according to the manufacturer's instructions. The membranes were stripped and reprobed with an anti-GAPDH antibody to confirm equal protein loading.
A431 cells were treated without (lane 1) or with 100 pM of TGF-β1 (lanes 2-6) in the absence (lane 2) or presence of 10 nM of P11 (11 aa peptide, lane 3), P16 (16 aa peptide, lane 4), P16-1 (scrambled peptide of 16 aa, lane 5) or Tris buffer (buffer, lane 6) for 24 hrs. Cell lysates were analyzed by Western blot for PAI-1 ([…]) protein levels and normalized to GAPDH protein levels (loading control).
A431 squamous cell carcinoma cells were treated for 18 hours without (−) or with (+) 100 pM TGF-β1 in the presence or absence of Peptide X or P16. The peptides were dissolved in Tris buffer and left untreated or treated with 0.5% DMSO prior to addition to the cells. Cell lysates were analyzed by Western blot for PAI-1 ([…]) protein expression (top panel) and GAPDH served as a loading control (bottom panel).

| Sequence | inhibition of TGF-β1-induced PAI-1 protein production, peptide treated with DMSO | inhibition of TGF-β1-induced PAI-1 protein production, peptide in Tris left untreated | inhibition of TGF-β1-induced PAI-1 protein production (10 nM peptide, 100 pM TGF-β1, 24 hrs (FIG. 7)) |
| --- | --- | --- | --- |
| ETWIWLDTNMGSRIYQ [Peptide P16] | did not enhance | inhibited | inhibited |
| LGSSPHVRKHFPETWIWLDTNMGSRIYQEFEVTVPDSITS (Peptide X) | inhibited | did not | – |

From US11787850B2, “Peptidic TGF-beta antagonists” (priority 2015, dated 2023)
